Measured values published in US12343336B2, “Increasing cancer cells' sensitivity to tumor treating fields (TTFields) by inhibiting IL11 activity” (Novocure GmbH, priority 2019, dated 2025).

Key:
N1S1 tumors = test: Fibrosis evaluation (score and Masson Trichrome morphometry) of treated N1S1 tumors; type: in vivo, SD rats
Experimental: (§1) Male SD rats, 8-weeks of age (Envigo Ltd, Israel), were anesthetized by I.P. injection of Ketamine (75 mg/kg) and Xylazine (10 mg/kg)(FIG. 2). After loss of postural reflexes, the fur was removed from the upper abdominal area using a trimmer. The left lobe of the liver was surgically exposed and 10 μl of cell suspension containing 50,000 N1-S1 hepatocellular carcinoma cells in equal volumes of serum free medium and Matrigel (CORNING, Bedford, MA) were injected directly into the left lobe using a syringe with a 31-gauge needle. The peritoneum and abdominal muscles incisions were closed using surgical sutures and the skin were close by clips. The rats were allowed to recover for 6 days.
(§2) On day 6 all animals underwent a first MRI scan and were randomly divided into the following treatment groups:
(§3) Group I—rats were treated with sham heating electrodes and vehicle injection.
(§4) Group II—rats were treated with 150 kHz TTFields and vehicle injection.
Group III—rats were treated with 10 mg/kg/day Sorafenib. […]
(§5) On day 7, electrodes (TTFields or sham heating) were placed on the animals. […] Tumor volume were determined based on MRI scans on days […] after tumor implantation. […] Tumor volume was measured by manual segmentation of the tumor using ITK-SNAP version 3.6.0-rc1 free software. […]
Tumors were harvested for histological evaluation of the grade of fibrosis using a semi-quantitative evaluation scale. […] Masson Trichrome stained sections were analyzed for fibrosis, using a scoring grade scale and digital morphometry.
H&E stained sections were examined by one pathologist and scored by a semi-quantitative scoring system for the presence of pathological changes (FIGS. 3 and 3A), as follows: • Grade 0: no signs of fibrosis • Grade 1: very mild signs of fibrosis • Grade 2: mild signs of fibrosis • Grade 3: moderate signs of fibrosis • Grade 4: High grade of fibrosis • Grade 5: Very high grade of fibrosis […]
The percent of the stained areas (FIG. 3: top-right) out of the whole tissue (FIG. 3: top-right+bottom-left) was calculated as shown in FIG. 4.

[1] = tested on: N1S1 liver carcinoma cells; test: N1S1 tumor volume by MRI in rats treated with TTFields and/or sorafenib; type: in vivo, Sprague Dawley rats
Experimental: Tumor volume was determined by MRI. […] In this experiment, the volume of the tumor was measured using MRI on day 6 (one day before treatment start) and day 14 (one day after the end of treatment); and each data point in FIG. 1A represents the volume of the tumor on day 14 divided by the volume of the tumor on day 6. Thus, numbers greater than 1 represent growth in the tumor volume, and numbers smaller than 1 represent a tumor that has shrunk between day 6 and day 14. In this figure, “*” represents p<0.1, “**” represents p<0.01, and “****” represents p<0.0001. […] FIG. 1B represents the volume of the tumor.
as §1, §2, §3, §4
Group III—rats were treated with 10 mg/kg/day Sorafenib.
Group IV—rats were treated with 150 kHz TTFields and 10 mg/kg/day Sorafenib.
as §5, with “animals. The animals were treated for 6 days with TTFields or sham heat.” for “animals.”

With `CNC(=O)c1cc(Oc2ccc(NC(=O)Nc3ccc(Cl)c(C(F)(F)F)c3)cc2)ccn1` [sorafenib] the fibrosis score (N1S1 tumors; TTFields in combination with sorafenib, relative to TTFields alone, evaluated by a pathologist) was “significantly reduced”, the “reduction in fibrotic area compared to control group” value (N1S1 tumors; combined treatment of 150 kHz TTFields and sorafenib 10 mg/kg/day) was 20.8% and the “decrease in fibrotic area relative to control” value (N1S1 tumors; sorafenib alone, 10 mg/kg/day, morphometry of fibrosis percent) was 30.4%. For the same compound, the tumor volume ([1]; combination of TTFields (2.86 V/cm) and sorafenib (10 mg/kg/day)) was “synergistic decrease”, the “decrease in tumor volume” value ([1]; combination of TTFields and sorafenib, N1S1 tumors, FIG. 1) was no less than 10 fold and the “fold increase in tumor volume (day 14 / day 6)” value ([1]; combination of TTFields at 150 kHz and sorafenib 10 mg/kg/day IP, MRI) was “significantly reduced”.
